Patent US20230042936A1, “PYRIDO[2,3-d]PYRIMIDIN-7(8H)-ONES AS CDK INHIBITORS” (PROSENESTAR LLC, priority 2020, published 2023)
“Also recorded” adds a separate entry of the source. Where two headings read alike, the source gives them in different places.

Key:
[1] = Metabolic stability in microsomes; assay type: in vitro ADME; settings: mouse, 60-90 min test; for microsomal CLint: read-out: Metabolic stability, Mouse microsomes: Clearance; for half-life: read-out: Metabolic stability, Mouse microsomes: t1/2
[2] = tested on: MDA-MB-231-derived xenografts; test: Tumor xenografts; assay type: in vivo, Athymic nude mice; settings: 100 mg/Kg intraperitoneally twice per week, two weeks; for phospho-RB levels in the xenografts: FIG. 9A; for tumor weight / tumor growth: vs DMSO; for tumor weight: FIG. 8A; for tumor growth: FIG. 8B
Method: (§1) For histological analysis, mice tissues and human xenografts were fixed in 10%-buffered formalin (Sigma) and embedded in paraffin wax. Sections of 3- or 5-μm thickness were stained with haematoxylin and eosin. Additional immunohistochemical examination was performed using a specific antibody against phospho-Rb (Ser807/811; Cell Signaling) or Ki67 (DAKO).
DMSO, PS004, PS006 and PS009 were diluted in sesame oil and administered intraperitoneally twice per week during two weeks at 100 mg/Kg. […] Tumor growth was monitored using caliper measurements and tumor size was estimated using the following formula: Tumor volume (mm^3)=d^2·D/2 where d and D, are the shortest and longest diameter in mm, respectively. After completing the treatment, mice were sacrificed and tumors were extracted, weighed, and fixed for histological analysis.
The therapeutic effect of the subject compounds was then tested by treating mice previously injected subcutaneously with MDA-MB-231 breast cancer cells. […] The dose amount of 100 mg/kg dosage in these cases was administered at a frequency of two injections per week for the total of two weeks of treatment.

[3] = tested on: human cancer cell lines (MDA-MB-231, U87-MG, H460) and MCF10; test: Suppression of proliferation of human cancer cell lines, results in words; assay type: cell-based; settings: summary of Table 3
Method: 48 h later cells were fixed with PFA 4% for 15 minutes, stained with 10 μg/ml Hoechst 33342 (Molecular Probes, Thermo Fisher) for 30 minutes and washed twice with PBS. Cells were imaged in a high content screening system (Opera Phoenix™, Perkin Elmer) using a 20× dry objective (30 fields/well). Cell counts were determined by the Opera software (Perkin Elmer) and data were further processed with SPSS software. GI50 was calculated by estimating the absolute IC50 using dose-response inhibition tool in Prism6 (Graphpad Software Inc.).
The cell growth inhibitions of the subject compounds were tested in multiple human cancer cell lines with wild-type Retinoblastoma protein: MDA-MB-231 (breast), U87-MG (glioblastoma), H460 (lung); and MCF10 (as an example of non-transformed human cells) and mutant cells.

[4] = Metabolic stability in microsomes; assay type: in vitro ADME; settings: human, 60-90 min test; for microsomal CLint: read-out: Metabolic stability, Human microsomes: Clearance; for half-life: read-out: Metabolic stability, Human microsomes: t1/2
[5] = Thermodynamic solubility (pH 7.4); assay type: physicochemical; settings: pH 7.4, aqueous buffer, thermodynamic from solid
[6] = Summary of solubility, metabolic stability and permeability
[7] = tested on: pRB-wild-type and pRB-deficient glioblastoma cells (U87MG, SW1783); test: GI50 compared in pRB-wild-type and pRB-deficient cells; assay type: cell-based, human; settings: comparison of GI50, Table 4
Method: (§2) […]. Cell counts were determined by the Opera software (Perkin Elmer) and data were further processed with SPSS software. GI50 was calculated by estimating the absolute IC50 using dose-response inhibition tool in Prism6 (Graphpad Software Inc.).
(§3) CDK4/6 kinases drive cell cycle progression by phosphorylating the retinoblastoma protein (pRB), thus, releasing its repressive activity on transcription. Accordingly, CDK4/6 specific inhibitors are inefficient in pRB-deficient cells, as cell cycle transcription is induced with independence of CDK4/6 activity. The subject compounds were therefore evaluated to what extent depend on the presence of a functional pRB. Two pairs of human cancer cell lines representing pRB-wild-type and pRB-deficient breast cancer and glioblastoma were tested. […].

[8] = tested on: pRB-wild-type and pRB-deficient breast cancer cells (MDA-MB-231, MDA-MB-468); test: as above; assay type: cell-based, human; settings: comparison of GI50, Table 4
Method: as §2, §3

[9] = Metabolic stability in hepatocytes; assay type: in vitro ADME; settings: mouse, 60-90 min test; for hepatocyte CLint: read-out: Metabolic stability, Mouse heptocytes: Clearance; for half-life: read-out: Metabolic stability, Mouse heptocytes: t1/2
Cdk2/4/6_KO MEFs = test: Cell growth in Cdk-deficient MEFs; assay type: cell-based, mouse; settings: relative cell count day 6 versus day 3; FIG. 4
Method: (§4) Cdk-deficient MEFs were plated in 10-cm dish in triplicate (100,000/well) and treated with the selected compounds at the indicated concentration, based on GI50 previously determined in the MDA-MB-231 cell line. Cells were counted in an optical microscope 3 and 6 days after treatment to estimate the relative cell growth in each condition.
(§5) To further investigate the relative functional dependence of the subject compounds on CDK2 versus CDK4 or CDK6, the specific effects of PS004, PS006 and PS009 were tested on CDK-deficient mouse embryonic fibroblasts (MEFs) obtained from Cdk2 knock out, Cdk4; Cdk6-double knock out and Cdk2; Cdk4; Cdk6-triple knock out mouse models.

Cdk4/6_KO MEFs = test: Cell growth in Cdk-deficient MEFs; assay type: cell-based, mouse; settings: relative cell count day 6 versus day 3; FIG. 4
Method: as §4, §5

[10] = Kinetic solubility (pH 7.4); assay type: physicochemical; settings: pH 7.4, aqueous buffer, kinetic from dmso stock
[11] = Toxicologic evaluation in vivo; settings: 50 or 100 mg/kg intraperitoneally twice a week for two weeks; for lung toxicity (hemorrhage in the lungs), mice affected: FIG. 11; for mouse weight: vs DMSO; for mouse weight / blood counts (white blood cells, lymphocytes): FIG. 10
phospho RB1 Ser807/811 = test: In vivo target engagement (phospho-RB staining of tissues); parameters: species or system mice; settings: FIG. 7
Description: FIG. 7 depicts the effect of PS004, PS006 and PS009 on the phosphorylation of the retinoblastoma protein in different tissues using antibodies against phospho RB1 Ser807/811. Micrographs are representative from three different mice per treatment.
as §1
For in vivo evaluation, the target engagement for the subject compounds in vivo was tested first.

[12] = tested on: luminal-like (ZR75-1, T47D, MCF7) and non-luminal (HCC1143, MDA-MB-231, BT549, MDA-MB-468) breast cancer cell lines; test: Relative cell growth in a panel of breast cancer cell lines (6 days); assay type: cell-based, human; settings: 6 days at GI50 dose (determined in MDA-MB-231); FIG. 5
Method: Data are mean±s.e.m. (3 technical replicates).
Relative cell proliferation was calculated by counting cell number at day 6 in treated cells versus cells treated with vehicle (DMSO).

Row | SMILES | microsomal CLint [1] [µL/min/mg] | half-life [1] [min] | phospho-RB levels in the xenografts [2] | tumor weight [2] | tumor growth [2] | suppression of cell proliferation [3] | microsomal CLint [4] [µL/min/mg] | half-life [4] [min] | solubility thermodynamic [5] [µM] | Summary: permeability [6] | Summary: solubility [6] | Summary: stability [6] | efficiency in pRB-deficient versus pRB-wild-type glioblastoma cells [7] | hepatocyte CLint [9] [µL/min/1e6 cells] | half-life [9] [min] | cell proliferation of Cdk2; Cdk4; Cdk6-triple knock out MEFs (Cdk2/4/6_KO MEFs) | cell proliferation of Cdk4; Cdk6-double knock out MEFs (Cdk4/6_KO MEFs) | solubility kinetic [10] [µM] | histopathology of the spleen [11] | lung toxicity (hemorrhage in the lungs), mice affected [11] | other results
1 | CC(O)COC1CCN(c2ccc(Nc3ncc4ccc(=O)n([C@@H]5CC6CCC5C6)c4n3)cc2)CC1 (stereo partly drawn) [PS006, 8-((2R)-bicyclo[2.2.1]heptan-2-yl)-2-((4-(4-(2-hydroxypropoxy)piperidin-1-yl)phenyl)amino)pyrido[2,3-d]pyrimidin-7(8H)-one] | 185 | 7.5 | significantly reduced | did not exert any antitumoral effect | did not exert any antitumoral effect | potent cell growth inhibition | 119 | 11.6 | < 2 | High | insoluble; also recorded: Insoluble, | highly unstable | equally efficient | 75.7 | 18.3 | efficient in preventing cell proliferation | efficient in preventing cell proliferation | < 1 | active extramedullar hematopoiesis | 1 out of 6 | Summary: efflux [6]: permeable/No; efficiency in pRB-null versus pRB-wild-type breast cancer cells [8]: equally efficient
2 | O=c1ccc2cnc(Nc3ccc(N4CCC(CCCO)CC4)cc3F)nc2n1[C@@H]1CC2CCC1C2 (stereo partly drawn) [PS002, 8-((2R)-bicyclo[2.2.1]heptan-2-yl)-2-((2-fluoro-4-(4-(3-hydroxypropyl)piperidin-1-yl)phenyl)amino)pyrido[2,3-d]pyrimidin-7(8H)-one] |  |  |  |  |  | exception |  |  |  |  |  |  |  |  |  |  |  |  |  |  | 
3 | O=c1ccc2cnc(Nc3ccc(N4CCC(CCCO)CC4)cc3)nc2n1C1CC2CCC1C2 (stereo not drawn) [PD-0183812, reference compound] |  |  |  |  |  |  |  |  |  |  |  |  |  |  |  |  |  |  | active extramedullar hematopoiesis | 6 out of 6 | histopathology of the bone marrow [11]: hypoplasia/reactive bone marrow; histopathology of the intestine [11]: aberrant mitotic figures; mouse weight [11]: induced significant weight loss
4 | CC(=O)c1c(C)c2cnc(Nc3ccc(N4CCC(CCCO)CC4)cc3)nc2n(C2CCCC2)c1=O [PS009, 6-acetyl-8-cyclopentyl-2-((4-(4-(3-hydroxypropyl)piperidin-1-yl)phenyl)amino)-5-methylpyrido[2,3-d]pyrimidin-7(8H)-one] | 46.9 | 29.5 | reduction of phospho-Rb phosphorylation which however did not reach statistical significance | did not exert any antitumoral effect | did not exert any antitumoral effect |  | 33 | 42 | < 2 | Low | insoluble; also recorded: Insoluble, |  | equally efficient | 67.8 | 20.4 | efficient in preventing cell proliferation | efficient in preventing cell proliferation | < 1 |  | 1 out of 6 | phospho-RB staining in bone marrow, intestine and spleen (phospho RB1 Ser807/811): evident RB target inhibition; efficiency in pRB-null versus pRB-wild-type breast cancer cells [8]: equally efficient; relative cell growth, luminal-like and non-luminal breast cancer cell lines [12]: efficient in both pRB-wild-type and mutant cell lines; also recorded: efficiently inhibit both luminal and non-luminal breast cancer cells; also recorded: able to inhibit proliferation in non-luminal, pRB-mutant breast cancer cells lines; blood counts (white blood cells, lymphocytes) [11]: no defects in blood counts; mouse weight [11]: induced weight loss
5 | CC(O)CCC1CCN(c2ccc(Nc3ncc4ccc(=O)n([C@@H]5CC6CCC5C6)c4n3)cc2)CC1 (stereo partly drawn) [PS004, 8-((2R)-bicyclo[2.2.1]heptan-2-yl)-2-((4-(4-(3-hydroxybutyl)piperidin-1-yl)phenyl)amino)pyrido[2,3-d]pyrimidin-7(8H)-one] | 54.5 | 25.4 | reduction of phospho-Rb phosphorylation which however did not reach statistical significance | significantly reduced | significantly reduced | inhibited cell growth with high potential | 40.8 | 34 | < 2 | Low | Insoluble, | Stable | more inefficient | 9.7 | 143 | efficient in preventing cell proliferation | efficient in preventing cell proliferation | < 1 | active extramedullar hematopoiesis | 4 out of 6 | Ki67 levels in the xenografts ([2]; FIG. 9B): slightly diminished; phospho-RB staining in bone marrow, intestine and spleen (phospho RB1 Ser807/811): evident RB target inhibition; histopathology of the bone marrow [11]: hypoplasia/reactive bone marrow; histopathology of the intestine [11]: aberrant mitotic figures; blood counts (white blood cells, lymphocytes) [11]: reduced lymphocyte counts
